Results from patent US20110082133A1, “PYRIDONE COMPOUNDS” (priority 2008, published 2011).

What was measured:
[1] = tested on: LPS-induced TNF-α production in THP-1 cells; assay: Inhibitory action on LPS-induced TNF-α production in THP-1 cells; format: cell-based; details: Homo sapiens, 3 hours after LPS, ELISA
Procedure: Human monocytic cell line THP-1 cells were suspended in an assay medium (PRMI-1640 containing 10% fetal bovine serum, 100 unit/mL penicillin G sodium, and 100 μg/mL streptomycin sulfate), and seeded onto a 96-well plate at 1×10^5 cells/well. 50 μL/well of an assay medium containing a test compound was added thereto, followed by incubation at 37° C. for 30 minutes. Further, 50 μL/well of an assay medium containing 1 to 5 μg/mL of LPS was added thereto, and the TNF-α concentration in the assay medium of each well after 3 hours was measured. The measurement was carried out by means of a standard ELISA method. A 96-well plate which had been coated overnight with an anti-human TNF monoclonal antibody (clone: MAb1) (manufactured by Becton, Dickinson and Company) as a capture antibody was washed with a wash buffer (PBS containing 0.05% Tween-20), and PBS containing 10% fetal bovine serum was incubated at room temperature for 1 hour to perform blocking. After washing with a wash buffer, 100 μL/well of the assay medium to be measured was incubated at 4° C. overnight. As the standard material to be measured, a recombinant human TNF (manufactured by Becton, Dickinson and Company) was used. After washing with a wash buffer, 100 μL of a biotinylated anti-human TNF monoclonal antibody (clone: MAb11) as a detection antibody was treated at room temperature for 1 hour. After washing with a wash buffer, it was treated with 100 μL/well of an HRP-labeled Streptavidin (manufactured by Zymed Laboratories, Inc.) at room temperature for 30 minutes, and washed again. Treatment was conducted using 100 μL/well of a TMB (3,3′,5,5′-tetramethylbenzidine) substrate liquid at room temperature for 20 minutes in a dark room. A 2 M sulfuric acid was added thereto at 50 μL/well to stop the reaction, and an absorbance at 450 nm/570 nm was measured by means of a plate reader SPECRA max (manufactured by Molecular Devices Inc.).

rat EP4 receptor [2] = target: T1, rat EP4 receptor (Rattus norvegicus, UniProt P43114); assay: Evaluation test on EP4 receptor affinity in rat ([3H]PGE2 receptor binding test, membrane fraction); parameters: expressed in transfected cells; host or cells: HEK293 cells, transient transfection (Lipofectamine 2000); membrane fraction used; details: [3H]PGE2 0.3 nM, membrane fraction of rat EP4 expressing HEK293 cells
T1 sequence (P43114 whole entry): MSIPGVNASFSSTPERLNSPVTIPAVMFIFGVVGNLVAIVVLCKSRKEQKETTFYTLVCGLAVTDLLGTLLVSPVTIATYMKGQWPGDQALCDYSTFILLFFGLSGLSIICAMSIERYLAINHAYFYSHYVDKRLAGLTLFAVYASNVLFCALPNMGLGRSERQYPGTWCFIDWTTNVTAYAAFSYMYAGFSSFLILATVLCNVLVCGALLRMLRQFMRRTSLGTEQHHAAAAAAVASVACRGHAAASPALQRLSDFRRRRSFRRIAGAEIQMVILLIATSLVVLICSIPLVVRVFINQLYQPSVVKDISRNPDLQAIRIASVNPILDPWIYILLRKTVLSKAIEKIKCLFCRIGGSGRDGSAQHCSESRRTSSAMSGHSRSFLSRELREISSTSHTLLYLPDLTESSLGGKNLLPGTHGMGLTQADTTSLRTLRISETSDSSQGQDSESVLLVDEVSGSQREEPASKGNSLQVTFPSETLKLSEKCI
Procedure: A rat EP4 receptor cDNA was subcloned into an expression vector (pcDNA3.1-V5-His-topo, manufactured by Invitrogen Corporation) to prepare a rat EP4 expression vector. HEK293 cells were cultured in a collagen type I-treated 15 cm dish (manufactured by Asahi Techno Glass Co. Ltd.) to a confluence of 70%. An Opti-MEM culture medium at 1.2 mL/dish and a transfection reagent (Lipofectamine 2000, manufactured by Invitrogen Corporation) at 60 μL/dish were mixed, followed by being left to stand at room temperature for 5 minutes. Then, the rat EP4 receptor expression vector at 15 μg/dish was added thereto, followed by being left to stand at room temperature for 30 minutes. The liquid mixture of the transfection reagent was added into the dish, followed by culturing for 20 to 24 hours. The cell culture was carried out in a CO2 incubator (37° C., 5% CO2).
The culture medium was removed by suction, 10 mL of cooled PBS was added thereto per 15 cm dish, and the cells were scraped using a cell scraper. After washed with cooled PBS (1,200 rpm, 4° C., 5 minutes), suspended in 6 mL/dish of cooled 20 mM Tris-HCl (pH 7.4; manufactured by Nacalai Tesque Inc., 5 mM EDTA included) and homogenized using a Polytron, the homogenate was centrifuged (26,000 rpm, 20 minutes, 4° C.). The obtained precipitate was resuspended in cooled 20 mM Tris-HCl and homogenized again using a Polytron, and the homogenate was centrifuged (26,000 rpm, 20 minutes, 4° C.). The obtained precipitate was resuspended in 50 mM HEPES (pH 7.5; manufactured by Dojindo Laboratories) at 1 mL per dish, homogenized using a Polytron, and freeze-stored at −80° C. as a membrane fraction. At this time, a part thereof was used for the measurement of the protein concentration. Measurement of the protein concentration was carried out using a Protein assay stain (manufactured by Bio-Rad Laboratories) in accordance with a standard Protocol as appended in duplicate.
[^3H]PGE2 50 μL (final concentration 0.3 nM; manufactured by Perkin Elmer Co., Ltd.), 100 μL (20 μg/well) of the membrane fraction prepared from the rat EP4 expression cell, and 50 μL of a test compound were mixed in a 96-well microplate (manufactured by Sumitomo Bakelite Co., Ltd.), incubated at room temperature for 1 hour, then filtered by suction on a microplate (UniFilter-96 GF/B, manufactured by Perkin Elmer Co., Ltd.) using a cell harvester (FilterMate Harvester, manufactured by Perkin Elmer Co., Ltd.), and washed three times with 300 μL/well of a cooled assay buffer (50 mM HEPES, 10 mM MgCl2). Dilution of [^3H]PGE2 and the membrane fraction was carried out using the assay buffer, and dilution of the test compound and the unlabeled PGE2 was carried out using dimethyl sulfoxide and the assay buffer. The UniFilter-96 GF/B was treated by preliminarily washing twice with 200 μL/well of the cooled assay buffer. The UniFilter-96 GF/B after filtration was dried in a dryer overnight, 50 μL/well of a liquid scintillation cocktail (MicroScint20, manufactured by Perkin Elmer Co., Ltd.) was added thereto, and the radioactivity was then measured using a liquid scintillation counter for a microplate (TopCount, manufactured by Perkin Elmer Co., Ltd.). For measurement of the non-specific binding, an unlabeled PGE2 (final concentration 1 μM; manufactured by Cayman Chemical Company) was added. All of the measurements were carried out in duplicate, and the specific binding amount was determined by subtracting the non-specific binding amount from the total binding amount.
According to the test method as described above, the rat EP4 receptor affinity (Ki) of the compound of the formula (I) was measured. […] In this connection, Ex means Example Compound number.

TNF-α production = assay: In vivo TNF-α production inhibiting action in rat (LPS-induced plasma TNF-α); parameters: species or system SD male rats; details: oral administration 1 hour before LPS (10 μg/kg i.v.), plasma TNF-α 90 minutes after LPS
Procedure: LPS (10 μg/kg) was administered to caudal veins of SD male rats, and after 90 minutes from the administration, the heparin blood was collected from the abdominal vena cava to prepare a plasma. The test compound was orally administered 1 hour before the administration of LPS. The amount of TNF-α in the plasma was measured using a BD OptEIA rat TNF ELISA set (manufactured by Becton, Dickinson and Company) according to the attached method. The inhibitory rate by the test compound was determined from the amount of TNF-α in plasma in a control group (administered with a solvent).

hindlimb blood flow = assay: Hindlimb blood flow increasing action in anesthetized rat; format: in vivo, Wistar male rats; details: 2 hours after administration, solvent group set as 100%
Procedure: Wistar male rats were used. The test compound was orally administered, and after 2 hours, the hindlimb blood was measured using a laser blood flow imaging apparatus (PIM II, manufactured by Integral Corporation). At 20 minutes before the measurement, 60 mg/kg of pentobarbital was intraperitoneally administered to conduct anesthesia.

rat EP4 receptor [3] = target: T1, rat EP4 receptor; assay: EP4 receptor agonistic action in rat (cAMP increasing action in rat EP4 receptor expression CHO-K1 cells); format: cell-based; parameters: expressed in transfected cells; details: cAMP increasing action by 1 μM PGE2 taken as 100%
Procedure: The agonistic activity was evaluated by the cAMP increasing action in the rat EP4 receptor expression cells. The rat EP4 receptor expression vector was introduced into CHO-K1 cells (American Type Culture Collection) to prepare a rat EP4 receptor stable expression cell line. These cells were seeded onto a 96-well microplate at 2×10^4 cell/well, and used for the experiment the next day. The culture medium of each well was removed by suction, 100 μL/well of an assay culture medium (2 μM indomethacin, 0.1% bovine serum albumin-containing α-MEM) was added thereto, and incubated at 37° C. for 1 hour. The culture medium was removed again by suction, and replaced with 100 μL/well of an assay culture medium comprising a test compound and 1 mM IBMX (3-isobutyl-1-methylxanthine). After incubating at 37° C. for 30 minutes, the culture medium was removed by suction, 100 μL/well of a cell lysate (0.2% Triton-X100-containing phosphate buffer physiological saline) was put thereinto, and the plate was shaken for 10 minutes. Using a cAMP femto 2 kit (manufactured by Cis Bio International), the cAMP concentration in the cell lysate was measured. Further, the cAMP increasing action (%) was calculated with the cAMP increasing action by 1 μM PGE2 was taken as 100%.

Row | SMILES | IC50 [1] | Ki (rat EP4 receptor [2]) | also measured
1 | CN(Cc1c(Cl)cc(Cl)c(=O)n1CCc1ccc(C(=O)O)cc1)C1CCCC1 [Ex 26] | 12 nM | – | –
2 | Cc1cc(C2CC2)c(CN2CCC[C@@H]2CC(C)C)n(CCc2ccc(C(=O)O)cc2)c1=O [Ex 27] | 12 nM | 25 nM | –
3 | CCC[C@H]1CCCN1Cc1c(Cl)cc(Cl)c(=O)n1CCc1ccc(-c2nnn[nH]2)cc1 [Ex 42] | 15 nM | 0.52 nM | ED50 (TNF-α production): 0.076 mg/kg
4 | CCOc1ccc2c(c1)N(Cc1c(Cl)cc(Cl)c(=O)n1CCc1ccc(C(=O)O)cc1)CC2 [Example 10, 4-(2-{3,5-dichloro-6-[(6-ethoxy-2,3-dihydro-1H-indol-1-yl)methyl]-2-oxopyridin-1(2H)-yl}ethyl)benzoic acid] | – | 3.2 nM | Blood flow relative to the group administered with the solvent (hindlimb blood flow; dose 0.3 mg/kg oral): 124%
5 | CCc1cccc2c1N(Cc1c(Cl)cc(Cl)c(=O)n1CCc1ccc(C(=O)O)cc1)CC2 [Example 13] | 7.4 nM | 24 nM | –
6 | CCc1cccc(N(C)Cc2c(Cl)cc(Cl)c(=O)n2CCc2ccc(C(=O)O)cc2)c1 [Example 106] | – | 28 nM | Blood flow relative to the group administered with the solvent (hindlimb blood flow; dose 0.3 mg/kg oral): 126%
7 | Cc1c(F)ccc2c1N(Cc1c(Cl)cc(Cl)c(=O)n1CCc1ccc(C(=O)O)cc1)CC2 [Example 149] | 2.8 nM | 9.5 nM | –
8 | CN(Cc1c(Cl)cc(Cl)c(=O)n1CCc1ccc(C(=O)O)cc1)c1cccc(C(F)(F)F)c1 [Example 159] | 2.7 nM | 3.3 nM | Blood flow relative to the group administered with the solvent (hindlimb blood flow; dose 0.1 mg/kg oral): 122%
9 | CCC[C@H]1CCCN1Cc1c(Br)ccc(=O)n1CCc1ccc(C(=O)O)cc1 [Example 207] | – | – | Blood flow relative to the group administered with the solvent (hindlimb blood flow; dose 1 mg/kg oral): 140%
10 | CCC[C@H]1CCCN1Cc1c(Cl)cc(Cl)c(=O)n1CCc1ccc(-c2n[nH]c(=O)o2)cc1 [Example 208] | – | 2.9 nM | cAMP increasing action (%) at 10 μM (rat EP4 receptor [3]): 83%
11 | Cc1cc(C)c(=O)n(CCc2ccc(-c3n[nH]c(=O)o3)cc2)c1CN1CCC[C@@H]1CC(C)C [Example 345] | 13 nM | 2.2 nM | ED50 (TNF-α production): 1.9 mg/kg
12 | Cc1cc(C2CC2)c(CN2CCC[C@@H]2CC(C)C)n(CCc2ccc(-c3n[nH]c(=O)o3)cc2)c1=O [Example 346] | – | 2.8 nM | ED50 (TNF-α production): 2 mg/kg
